From patent US9494592B2, “Reaction-based fluorescent probes for sulfane sulfur and the application in bioimaging” (Washington State University, priority 2013, dated 2016)

Key:
H9c2 cells = assay: Fluorescence imaging of H2S2 in H9c2 cells; assay type: cell-based; conditions: SSP2 50 μM 20 min
Description: (§1) FIGS. 6A-F Fluorescence images of H2S2 detection in H9c2 cells (a, b, c) and HeLa cells (d, e, f). Cells on glass coverslips were incubated with SSP2 (50 μM) for 20 min, then washed and subjected to different treatments. (a & d) controls (no Na2S2 was added); (b & e) treated with 50 μM Na2S2; (c & f) treated with 100 μM Na2S2.
(§2) H9c2 cells and HeLa cells were grown on glass-bottom culture dishes (Corning Inc.) in DMEM supplemented with 10% (v/v) FBS, penicillin (100 U/mL) and streptomycin (100 μg/mL) at 37° C. under a humidified atmosphere containing 5% CO2. Before use, the adherent cells were washed one time with FBS-free DMEM. For intracellular H2S2 imaging, the cells were incubated with 50 μM SSP2 in FBS-free DMEM (containing 200 μM CTAB) at 37° C. for 20 min. After removal of excess probe and washed with PBS (pH 7.4), the cells were incubated with 50 or 100 uM Na2S2 for 30 min in PBS buffer (pH 7.4, containing 500 μM CTAB). Cell imaging was carried out after washing the cells three times with PBS (pH 7.4).

[1] = Fluorescence response of probes to Na2S2 (H2S2 equivalent) in PBS buffer with CTAB; conditions: probe 5.0 μM, Na2S2 25 μM, 50 mM PBS pH 7.4, 1 mM CTAB, rt
Description: (§3) The stock solution of SSP1 (1 mM) and SSP2 (1 mM) were prepared in CH3CN, respectively. The solutions of various testing species were prepared from Cysteine (Cys), GSH, Homocysteine (Hcy), Glutathione disulfide (GSSG), Na2S.9H2O, Na2S2O3, Na2SO3, Na2SO4, Na2S2 in 50 mM PBS buffer. The stock solution of Cetrimonium bromide (CTAB, 100 mM) and S8 (10 mM) were prepared in EtOH, respectively. The stock solution of Cys-polysulfide (10 mM) was prepared in CH3CN. All the test solution need to be freshly prepared.
Unless otherwise noted, all the measurements were carried out for 10 min at 25° C. in 50 mM PBS buffer (pH 7.4) with 1 mM CTAB according to the following procedure. In a test tube, 3.5 mL of 50 mM PBS buffer (pH 7.4) and 40 μL of the stock solution of CTAB were mixed, and then added 20 μL of the stock solution of SSP1 or SSP2. The resulting solution was mixed well, followed by addition of a requisite volume of testing species sample solution. The final volume of the reaction solution was adjusted to 4 mL with 50 mM PBS buffer (pH 7.4). After mixing and then standing for 10 min at room temperature, a 4-mL portion of the reaction solution was transferred into a 1-cm quartz cell to measure fluorescence with λex=380 nm (for SSP1) or 482 nm (SSP2). In the meantime, a blank solution containing no testing species sample was prepared and measured under the same conditions for comparison. […]

[2] = Selectivity: fluorescence response to sulfane sulfur compounds; conditions: sulfane sulfurs at 25 μM (H2S2, Cys-polysulfide, S8), probe 5.0 μM, 10 min, PBS pH 7.4, 1 mM CTAB
Description: FIGS. 5A-B Fluorescence enhancement (F/F0) of 5.0 μM probes in the presence of various reactive sulfur species. (FIG. 5A) data of SSP1 (Ex/Em=380/458 nm). (FIG. 5B) data of SSP2 (Ex/Em=482/518 nm). The reactions were carried out for 10 min at rt in PBS buffer (50 mM, pH 7.4) with 1 mM CTAB. (1) probe alone; (2) 1 mM Cys; (3) 1 mM GSH; (4) 1 mM Hcy; (5) 100 μM GSSG; (6) 100 μM Na2S; (7) 100 μM Na2S2O3; (8) 100 μM Na2SO3; (9) 100 μM Na2SO4; (10) 25 μM Na2S2; (11) 25 μM Cys-polysulfide; (12) 25 μM S8.
as §3, with “The stock solution of Cys-polysulfide (10 mM) was prepared in CH3CN. All the test solution need to be freshly prepared.” left out
Unless otherwise noted, all the measurements were carried out for 10 min at 25° C. in 50 mM PBS buffer (pH 7.4) with 1 mM CTAB according to the following procedure. […] After mixing and then standing for 10 min at room temperature, a 4-mL portion of the reaction solution was transferred into a 1-cm quartz cell to measure fluorescence with λex=380 nm (for SSP1) or 482 nm (SSP2). In the meantime, a blank solution containing no testing species sample was prepared and measured under the same conditions for comparison. […]

HeLa cells = assay: Fluorescence imaging of H2S2 in HeLa cells; assay type: cell-based; conditions: SSP2 50 μM 20 min
Description: as §1, §2

[3] = Effect of pH on probe fluorescence and stability; assay type: physicochemical; conditions: probe 5.0 μM, 50 mM PBS, 1 mM CTAB
Description: FIGS. 2A-B Fluorescence intensity changes of (FIG. 2A) 5.0 μM SSP1 and (FIG. 2B) 5.0 μM SSP2 at different pH values in the absence (▪) or presence (●) of Na2S2 (25 μM). The reactions were carried out for 10 min at 25° C. in 50 mM PBS buffer with 1 mM CTAB. Data (A) were acquired at 458 nm and excited at 380 nm. Data (B) were acquired at 518 nm and excited at 482 nm.
Unless otherwise noted, all the measurements were carried out for 10 min at 25° C. in 50 mM PBS buffer (pH 7.4) with 1 mM CTAB according to the following procedure. In a test tube, 3.5 mL of 50 mM PBS buffer (pH 7.4) and 40 μL of the stock solution of CTAB were mixed, and then added 20 μL of the stock solution of SSP1 or SSP2. The resulting solution was mixed well, followed by addition of a requisite volume of testing species sample solution. The final volume of the reaction solution was adjusted to 4 mL with 50 mM PBS buffer (pH 7.4). After mixing and then standing for 10 min at room temperature, a 4-mL portion of the reaction solution was transferred into a 1-cm quartz cell to measure fluorescence with λex=380 nm (for SSP1) or 482 nm (SSP2). In the meantime, a blank solution containing no testing species sample was prepared and measured under the same conditions for comparison. All the measurements were repeated three times and data reported were averages.

[4] = Fluorescence quantum yield determination; assay type: physicochemical; conditions: probe alone; aqueous PBS buffer solution (pH 7.4)
Description: The quantum yield was calculated according to the equation:^3 (Φsample=Φstandard*(Isample/Istandard)*(Astandard/Asample)*(nsample/nstandard)^2) Φ denotes the quantum yield; I denotes the area under the fluorescence band; A denotes the absorbance at the excitation wavelength; n denotes the refractive index of the solvent.
For quantum yield of SSP1, it was determined using 7-hydroxycoumarin as a standard by comparing the area under the corrected emission spectrum of the test sample with that of a solution of 7-hydroxycoumarin excited at 330 nm in sodium phosphate buffer (0.1 M; pH 7.4), which has a quantum efficiency of 0.76 according to the literature.
For quantum yield of SSP2, Quantum yield was determined using fluorescein as a standard by comparing the area under the corrected emission spectrum of the test sample with that of a solution of fluorescein excited at 490 nm in 0.1 N NaOH, which has a quantum efficiency of 0.85 according to the literature.

[5] = excited at 330 nm in sodium phosphate buffer (0.1 M; pH 7.4); cited from earlier work
[6] = then Na2S2 (50 or 100 μM) for 30 min

SMILES	cell fluorescence at 100 μM versus 50 μM Na2S2 (H9c2 cells; Na2S2 30 min)	cell fluorescence after Na2S2 treatment (H9c2 cells; [6])	cell fluorescence without Na2S2 (H9c2 cells; washed, no Na2S2)	fluorescence intensity increase [1]	fluorescence response (enhancement F/F0) [2]	cell fluorescence at 100 μM versus 50 μM Na2S2 (HeLa cells; Na2S2 30 min)	cell fluorescence after Na2S2 treatment (HeLa cells; [6])	cell fluorescence without Na2S2 (HeLa cells; washed, no Na2S2)	hydrolytic stability at basic pH [3]	fluorescence quantum yield (Φ) [4]	quantum efficiency of standard [5]
COc1ccc2c(c1)Oc1cc(OC(=O)c3ccccc3S)ccc1C21OC(=O)c2ccccc21 (stereo not drawn) [SSP2]	obviously stronger fluorescence	strong fluorescence	No significant fluorescent cells	50 folds	50˜60 folds	obviously stronger fluorescence	strong fluorescence	No significant fluorescent cells	remains stable up to pH 9	0.05	–
O=C(Oc1ccc2ccc(=O)oc2c1)c1ccccc1S [SSP1]	–	–	–	25 folds	26˜33 folds	–	–	–	above pH 8, SSP1 undergoes small amount of hydrolysis	0.06	–
O=c1ccc2ccc(O)cc2o1 [7-hydroxycoumarin]	–	–	–	–	–	–	–	–	–	–	0.76
